Reference: patent publication EP3290040A1, “PROPHYLACTIC AND THERAPEUTIC AGENT FOR COMPLICATIONS AFTER CATARACT SURGERY” (Honjo, Megumi, priority 2015, dated 2016)

Columns and labels:
Format in all cases: cell-based
Human normal fibroblasts = assay: Fibroblast proliferation, BrdU incorporation (Cell Proliferation ELISA BrdU kit); conditions: cultured 2 days, no added Ripasudil = 100%
Method: Human normal fibroblasts (Sanko Junyaku Co., Ltd.) were seeded at 2000 cells/well and cultured overnight. Next day, the medium (FGM-2 (Sanko Junyaku Co., Ltd.)) was exchanged (150 µL) and then Ripasudil was added in a volume of 10 µL to make final concentrations of 0.1 µM, 1.0 µM, and 10.0 µM. […] Fixation and antibody addition, washing and color development, and reaction stopping were performed according to the protocol of the Cell Proliferation ELISA BrdU kit (Roche). Then, a plate reader was used to measure OD540-620 to evaluate the action of Ripasudil on fibroblast proliferation. […]

[1] = test system: Human lens epithelial cells (SRA 01/04); assay: Cell proliferation (DNA synthesis ability) of lens epithelial cells, BrdU incorporation ELISA; conditions: SRA 01/04 cells, 24 hours, FIG. 1
Method: Human lens epithelial cells (SRA 01/04 (RIKEN Cell Bank)) were cultured using 20% FBS-DMEM medium under conditions at 37°C and 5% CO2. The concentration of SRA 01/04 cells was adjusted using 2% FBS-DMEM medium, and the cells were seeded in a 96-well plate at 100 µL/well (5000 cells/well) and incubated for 24 hours under conditions at 37°C and 5% CO2. The medium was exchanged to 5% FBS-DMEM medium, to which TGFβ was added at 10 ng/mL (final concentration) or Ripasudil at 10, 30, or 100 µM (final concentration), and then the cells were cultured for another 24 hours. The cell proliferation ELISA, BrdU (colorimetric) kit (Roche) was used to measure the amount of intracellular 5-bromo-2'-deoxyuridine (BrdU) incorporation at a measurement wavelength of 450 nm with Multiskan MS version 8.0 (LABSYSTEMS), thereby to evaluate the effect on the cell proliferation of SRA 01/04 cells.

HT-1080 cell = assay: Inhibitory action on collagen gel contraction (cell-containing collagen gel); set-up: key: When a contraction level was almost equal to that of a group to which Ripasudil was not added, (+) was used; (++) was used in the case where contraction was inhibited; (+++) was used in the case where contraction was significantly inhibited; conditions: HT1080 collagen gel, observed after two or three days
Method: HT-1080 cell suspension adjusted to a density of 150,000 to 200,000 cells/mL with a medium (medium: E'MEM (Sigma)/10% FBS/NEAA/PCSM), and a solution, obtained by mixing A, B and C solutions (A solution: Cellmatrix (Collagen Type I 3 mg/mL), B solution: concentrated culture medium, 10 x MEM Hank's culture medium, and C solution: buffer for reconstitution) of collagen gel culture kit (Nitta Gelatin Inc.) mixed at a ratio of 8 : 1 : 1 and cooling the obtained mixture, were mixed at a ratio of 1.4 : 1, and the obtained mixture was seeded in a 48 Well Plate at 500 µL/well and gelatinized in a CO2 incubator to produce a cell-containing collagen gel. After gelation, 1 mL of the medium in which Ripasudil was adjusted to 0.1 µM, 1.0 µM or 10.0 µM was added on the gel, and an injection needle was inserted between the gel and the wall surface to release the gel from the wall surface, and the gel was incubated to stand in a CO2 incubator. After two or three days, the contraction of the gel was observed, and photos were taken to evaluate the actions of Ripasudil.

Q: How did the “BrdU incorporation (% of control)” value (Human normal fibroblasts; Ripasudil 0.1 µM) turn out when C[C@H]1CNCCCN1S(=O)(=O)c1cccc2cncc(F)c12 [Ripasudil, 4-fluoro-5-{[(2S)-2-methyl-1,4-diazepan-1-yl]sulfonyl}isoqu inoline] was run?
A: Its value is 80.0 % of control.

Q: And the “BrdU incorporation (% of control)” value (Human normal fibroblasts; Ripasudil 1.0 µM)?
A: The value was 59.3 % of control.

Q: What about the “BrdU incorporation (% of control)” value (Human normal fibroblasts; Ripasudil 10.0 µM) of the same compound?
A: Its value is 10.9 % of control.

Q: What about the “DNA synthesis of human lens epithelial cells” value ([1]; Ripasudil 30 µM) of the same compound?
A: Its value is “statistically significant decrease”.

Q: What about the “DNA synthesis of human lens epithelial cells” value ([1]; Ripasudil 10, 30 or 100 µM) of the same compound?
A: The value was “dose-dependent inhibitory action”.

Q: What about the Inhibition of contraction (HT-1080 cell; Ripasudil 0.1 µM) of the same compound?
A: Its Inhibition of contraction is “+”.

Q: What about the Inhibition of contraction (HT-1080 cell; Ripasudil 1.0 µM) of the same compound?
A: The Inhibition of contraction was “++”.

Q: What about the Inhibition of contraction (HT-1080 cell; Ripasudil 10.0 µM) of the same compound?
A: Its Inhibition of contraction is “+++”.
